The text below walks through data of patent publication US10004701B2, “Methods and compositions for treating infection” (UNIVERSITY OF ROCHESTER, priority 2012, dated 2018).

What all share (experiment): AK assay 384-well format, Prestwick library screening
In one assay the test system is K. pneumoniae. The format is cell-based, Klebsiella pneumoniae. To be noted: for fold induction at 50 µM: Klebsiella pneumoniae, 3 h.
The next assay deals with E. faecium. The format is cell-based, Enterococcus faecium. To be noted: for fold induction at 50 µM: Enterococcus faecium, 3 h.
The next assay concerns E. coli. It counts as cell-based, Escherichia coli. To be noted: for fold induction at 50 µM: Escherichia coli, 3 h.
Assay [1] concerns S. aureus strain USA300-0114. It counts as cell-based, Staphylococcus aureus. To be noted: for fold induction at 50 µM: Staphylococcus aureus, USA300, 3 h.
In the next assay the test system is E. cloacae. It counts as cell-based, Enterobacter cloacae. To be noted: for fold induction at 50 µM: Enterobacter cloacae, 3 h.
In another assay the test system is P. aeruginosa. The format is cell-based, Pseudomonas aeruginosa. To be noted: for fold induction at 50 µM: Pseudomonas aeruginosa, 3 h.
Assay [2] deals with A. baumannii strain 98-37-09. The format is cell-based, Acinetobacter baumannii. To be noted: for fold induction at 50 µM: Acinetobacter baumannii, 983709, 3 h.
Where [3] appears, read: 50 μM final drug concentration, planktonic, cutoff for positive-scoring molecules 3-fold increase, read-out: AK-based Prestwick Library Screening Results, K. pneumoniae (fold increase in extracellular AK activity).
Setting [4] is: 50 μM final drug concentration, planktonic, cutoff for positive-scoring molecules 3-fold increase, read-out: AK-based Prestwick Library Screening Results, E. faecium (fold increase in extracellular AK activity).
Setting [5] is: 50 μM final drug concentration, planktonic, cutoff for positive-scoring molecules 3-fold increase, read-out: AK-based Prestwick Library Screening Results, E. coli (fold increase in extracellular AK activity).
Where [6] appears, read: 50 μM final drug concentration, planktonic, cutoff for positive-scoring molecules 3-fold increase, read-out: AK-based Prestwick Library Screening Results, S. aureus (fold increase in extracellular AK activity).
Setting [7] is: 50 μM final drug concentration, planktonic, cutoff for positive-scoring molecules 3-fold increase, read-out: AK-based Prestwick Library Screening Results, E. cloacae (fold increase in extracellular AK activity).
[8] abbreviates: 50 μM final drug concentration, planktonic, cutoff for positive-scoring molecules 3-fold increase, read-out: AK-based Prestwick Library Screening Results, P. aeruginosa (fold increase in extracellular AK activity).
[9] abbreviates: 50 μM final drug concentration, planktonic, cutoff for positive-scoring molecules 3-fold increase, read-out: AK-based Prestwick Library Screening Results, A. baumannii (fold increase in extracellular AK activity).
Setting [10] is: 50 μM final drug concentration, planktonic, cutoff for positive-scoring molecules 3-fold increase.
The mark [11] stands for this setting: 50 μM final drug concentration, planktonic, […].

SMILES strings stand for the structures. Structures can show the parent of a compound that is named as a salt. Where two headings read alike, the source gives them in different places.

Regarding `C[n+]1ccccc1/C=N/O` [Pralidoxime chloride], the fold induction at 50 µM is 1 with K. pneumoniae (read-out: AK-based Prestwick Library Screening Results, K. pneumoniae (fold increase in extracellular AK activity)); 1 in the assay on E. faecium (read-out: AK-based Prestwick Library Screening Results, E. faecium (fold increase in extracellular AK activity)); 1.3 in the assay with E. coli (read-out: AK-based Prestwick Library Screening Results, E. coli (fold increase in extracellular AK activity)); 1.3 in assay [1] (read-out: AK-based Prestwick Library Screening Results, S. aureus (fold increase in extracellular AK activity)); 1.5 with E. cloacae (read-out: AK-based Prestwick Library Screening Results, E. cloacae (fold increase in extracellular AK activity)); 1.2 in the assay with P. aeruginosa (read-out: AK-based Prestwick Library Screening Results, P. aeruginosa (fold increase in extracellular AK activity)). For the same compound, in assay [2] (read-out: AK-based Prestwick Library Screening Results, A. baumannii (fold increase in extracellular AK activity)), the fold induction at 50 µM worked out at 1.4.

For the compound `CC(=O)[C@H]1CC[C@H]2[C@@H]3C=CC4=CC(=O)CC[C@@]4(C)[C@@H]3CC[C@]12C` [Dydrogesterone], the fold induction at 50 µM with K. pneumoniae (setting [3]) amounted to 0.8; with E. faecium (setting [4]), 1; in the assay with E. coli (setting [5]) it was 0.9; in assay [1] (setting [6]), 0.7; with E. cloacae (setting [7]) it was 1.2; in the assay with P. aeruginosa (setting [8]) it was 0.9. In addition, the fold induction at 50 µM in assay [2] (setting [9]) was determined as 0.8.

Regarding `CC(C)(Oc1ccc(C2CC2(Cl)Cl)cc1)C(=O)O` (stereo not drawn) [Ciprofibrate], the fold induction at 50 µM with K. pneumoniae (planktonic K. pneumoniae, 50 μM final drug concentration, positive cutoff 3-fold increase, read-out: AK-based Prestwick library screening result, K. pneumoniae (fold increase in extracellular AK activity)) is 0.8; in the assay on E. faecium (planktonic E. faecium, 50 μM final drug concentration, positive cutoff 3-fold increase, read-out: AK-based Prestwick library screening result, E. faecium (fold increase in extracellular AK activity)) it was 0.9; in the assay on E. coli (planktonic E. coli, 50 μM final drug concentration, positive cutoff 3-fold increase, read-out: AK-based Prestwick library screening result, E. coli (fold increase in extracellular AK activity)) it was 0.8; in assay [1] (planktonic S. aureus, 50 μM final drug concentration, positive cutoff 3-fold increase, read-out: AK-based Prestwick library screening result, S. aureus (fold increase in extracellular AK activity)), 0.7; in the assay with E. cloacae (planktonic E. cloacae, 50 μM final drug concentration, positive cutoff 3-fold increase, read-out: AK-based Prestwick library screening result, E. cloacae (fold increase in extracellular AK activity)) it was 1.2; with P. aeruginosa (planktonic P. aeruginosa, 50 μM final drug concentration, positive cutoff 3-fold increase, read-out: AK-based Prestwick library screening result, P. aeruginosa (fold increase in extracellular AK activity)) it was 0.7. Besides, the fold induction at 50 µM in assay [2] (planktonic A. baumannii, 50 μM final drug concentration, positive cutoff 3-fold increase, read-out: AK-based Prestwick library screening result, A. baumannii (fold increase in extracellular AK activity)) amounted to 0.8.

In the case of `Cl.Cl.c1ccc2c3c([nH]c2c1)C1C2CCC(C4CCCNC42)N1CC3` (stereo not drawn) [Nitrarine dihydrochloride], the “AK-based Prestwick Library Screening Results, K. pneumoniae (fold increase in extracellular AK activity)” value with K. pneumoniae (setting [10]) stood at 1.1. For the same compound, in the assay with E. faecium (setting [10]), the “AK-based Prestwick Library Screening Results, E. faecium (fold increase in extracellular AK activity)” value came to 1.0. Besides, the “AK-based Prestwick Library Screening Results, E. coli (fold increase in extracellular AK activity)” value with E. coli (setting [11]) was determined as 1.2. Also, in assay [1] (setting [10]), the “AK-based Prestwick Library Screening Results, S. aureus (fold increase in extracellular AK activity)” value turned out to be 1.3. Also, in the assay with E. cloacae (setting [10]), the “AK-based Prestwick Library Screening Results, E. cloacae (fold increase in extracellular AK activity)” value is listed as 1.4. In the assay on P. aeruginosa (setting [10]), the “AK-based Prestwick Library Screening Results, P. aeruginosa (fold increase in extracellular AK activity)” value came out at 1.1. Moreover, in assay [2] (setting [10]), the “AK-based Prestwick Library Screening Results, A. baumannii (fold increase in extracellular AK activity)” value is given as 1.0.

In the case of `C[C@@H]1O[C@@H](O[C@H]2C[C@@H](O)[C@]3(CO)[C@H]4[C@H](O)C[C@]5(C)[C@@H](C6=CC(=O)OC6)CC[C@]5(O)[C@@H]4CC[C@]3(O)C2)[C@H](O)[C@H](O)[C@H]1O.O.O.O.O.O.O.O.O` [Strophantine octahydrate], the “AK-based Prestwick Library Screening Results, K. pneumoniae (fold increase in extracellular AK activity)” value with K. pneumoniae (setting [11]) was found to be 0.9. In addition, in the assay on E. faecium (setting [11]), the “AK-based Prestwick Library Screening Results, E. faecium (fold increase in extracellular AK activity)” value worked out at 1.0. Further, the “AK-based Prestwick Library Screening Results, E. coli (fold increase in extracellular AK activity)” value with E. coli (setting [11]) was 1.2. For the same compound, in assay [1] (setting [11]), the “AK-based Prestwick Library Screening Results, S. aureus (fold increase in extracellular AK activity)” value was 1.1. For the same compound, the “AK-based Prestwick Library Screening Results, E. cloacae (fold increase in extracellular AK activity)” value with E. cloacae (setting [11]) is given as 1.7. Also, the “AK-based Prestwick Library Screening Results, P. aeruginosa (fold increase in extracellular AK activity)” value in the assay with P. aeruginosa (setting [11]) stood at 1.1. In assay [2] (setting [11]), the “AK-based Prestwick Library Screening Results, A. baumannii (fold increase in extracellular AK activity)” value came out at 1.2.

For `O=C(O)c1cccnc1` [Niacin], the fold induction at 50 µM with K. pneumoniae (setting [3]) stood at 0.5; in the assay on E. faecium (setting [4]), 0.9; with E. coli (setting [5]), 0.7; in assay [1] (setting [6]), 0.6; in the assay with E. cloacae (setting [7]), 0.7; in the assay with P. aeruginosa (setting [8]), 0.6. For the same compound, the fold induction at 50 µM in assay [2] (setting [9]) came to 0.6.

Take `O=c1[nH]c(=O)n([C@H]2C[C@H](O)[C@@H](CO)O2)cc1I` [Idoxuridine]: the fold induction at 50 µM came to 0.6 in the assay on K. pneumoniae (50 μM final drug concentration, 384-well format, cutoff for positive-scoring molecules 3-fold increase, read-out: AK-based Prestwick Library Screening Results, K. pneumoniae (increase in extracellular AK activity)); 1 in the assay with E. faecium (50 μM final drug concentration, 384-well format, cutoff for positive-scoring molecules 3-fold increase, read-out: AK-based Prestwick Library Screening Results, E. faecium (increase in extracellular AK activity)); 0.7 with E. coli (50 μM final drug concentration, 384-well format, cutoff for positive-scoring molecules 3-fold increase, read-out: AK-based Prestwick Library Screening Results, E. coli (increase in extracellular AK activity)); 0.7 in assay [1] (50 μM final drug concentration, 384-well format, cutoff for positive-scoring molecules 3-fold increase, read-out: AK-based Prestwick Library Screening Results, S. aureus (increase in extracellular AK activity)); 0.8 in the assay on E. cloacae (50 μM final drug concentration, 384-well format, cutoff for positive-scoring molecules 3-fold increase, read-out: AK-based Prestwick Library Screening Results, E. cloacae (increase in extracellular AK activity)); 0.6 in the assay with P. aeruginosa (50 μM final drug concentration, 384-well format, cutoff for positive-scoring molecules 3-fold increase, read-out: AK-based Prestwick Library Screening Results, P. aeruginosa (increase in extracellular AK activity)). For the same compound, the fold induction at 50 µM in assay [2] (50 μM final drug concentration, 384-well format, cutoff for positive-scoring molecules 3-fold increase, read-out: AK-based Prestwick Library Screening Results, A. baumannii (increase in extracellular AK activity)) was 0.7.

Regarding `O=C1c2c(O)ccc(O)c2C(=O)c2c(NCCNCCO)ccc(NCCNCCO)c21` [Mitoxantrone dihydrochloride], the fold induction at 50 µM turned out to be 1 in the assay with K. pneumoniae (50 μM final drug concentration, planktonic, cutoff for positive 3-fold increase, read-out: AK-based Prestwick Library Screening Results, K. pneumoniae (fold increase in extracellular AK activity)); 0.8 with E. faecium (50 μM final drug concentration, planktonic, cutoff for positive 3-fold increase, read-out: AK-based Prestwick Library Screening Results, E. faecium (fold increase in extracellular AK activity)); 1.5 in the assay on E. coli (50 μM final drug concentration, planktonic, […], read-out: AK-based Prestwick Library Screening Results, E. coli (fold increase in extracellular AK activity)); 0.7 in assay [1] (50 μM final drug concentration, planktonic, cutoff for positive 3-fold increase, read-out: AK-based Prestwick Library Screening Results, S. aureus (fold increase in extracellular AK activity)); 1.2 with E. cloacae (50 μM final drug concentration, planktonic, cutoff for positive 3-fold increase, read-out: AK-based Prestwick Library Screening Results, E. cloacae (fold increase in extracellular AK activity)); 0.9 in the assay with P. aeruginosa (50 μM final drug concentration, planktonic, cutoff for positive 3-fold increase, read-out: AK-based Prestwick Library Screening Results, P. aeruginosa (fold increase in extracellular AK activity)). In addition, the fold induction at 50 µM in assay [2] (50 μM final drug concentration, planktonic, cutoff for positive 3-fold increase, read-out: AK-based Prestwick Library Screening Results, A. baumannii (fold increase in extracellular AK activity)) was determined as 1.5.

Turning to `COc1cc(NS(=O)(=O)c2ccc(N)cc2)nc(OC)n1` [Sulfadimethoxine], the fold induction at 50 µM with K. pneumoniae (setting [3]) is 0.5; in the assay with E. faecium (setting [4]), 0.9; with E. coli (setting [5]) it was 0.6; in assay [1] (setting [6]), 0.5; in the assay on E. cloacae (setting [7]), 0.4; with P. aeruginosa (setting [8]), 0.4. In addition, in assay [2] (setting [9]), the fold induction at 50 µM was found to be 0.9.
